Read-outs that look alike come from different tables or passages of the source.
How the values were obtained:
[1] = system: LPS-induced NO production; assay: LPS-induced NO production in RAW 264.7 macrophage (Griess reaction); assay type: cell-based, murine; conditions: RAW 264.7 macrophage, nitrite by Griess reaction, read-out: IC50, inhibition against LPS-induced NO production
Method: RAW 264.7 cells were cultured in Rosewell Park Memorial Institute (RPMI) 1640 media (without phenol red) supplemented with 10% endotoxin-free, heat-inactivated fetal calf serum, 100 units/ml penicillin, and 100 μg/ml streptomycin. When the cells reached a density of 2-3×10^6 cells/ml, they were activated by incubation in a medium containing E. coli lipopolysaccharide (LPS) (100 ng/ml). Various concentrations of compounds of the disclosure in dimethyl sulphoxide (DMSO) were added together with LPS. Cells were treated with 0.05% DMSO as the vehicle control. The stimulated murine macrophage cell line RAW 264.7 cells were washed with PBS and lysed in an ice-cold RIPA buffer (Tris-HCl, pH 7.2, 25 mM; 0.1% SDS; 1% Triton X-100; 1% sodium deoxycholate; 0.15 M NaCl; 1 mM EDTA) containing 1 mM phenylmethyl sulphonyl fluoride (PMSF), 10 μg/mL aprotinin, 1 mM sodium ortho-vanadate, and 5 μg/mL leupeptin. Protein concentrations were determined using the BCA method (Pierce, Rockford, Ill.). The samples (50 μg of protein) were mixed with 5-fold of sample buffer containing 0.3 M Tris-HCl (pH 6.8), 25% 2-mercaptoethanol, 12% sodium dodecyl sulphate (SDS), 25 mM EDTA, 20% glycerol, and 0.1% bromophenol blue. The mixtures were boiled at 100° C. for 5 min, prerun on a stacking gel, and then resolved by 12% SDS-polyacrylamide minigels at a constant current of 20 mA. For western blot, proteins on the gel were electro-transferred onto a […] immobile polyvinylidene fluoride (PVDF) membrane with a transfer buffer composed of 25 mM Tris-HCl (pH 8.9), 192 mM glycine, and 20% methanol, as described by Pan et al. (2000). Membrane blocking was then carried out at room temperature for 1 h in blocking solution (20 mM Tris-HCl pH 7.4, 125 mM NaCl, 0.2% Tween 20, 1% bovine serum albumin, and 0.1% sodium azide). The membrane was incubated with the primary antibody of iNOS and COX-2 at 4° C. overnight. The membranes were subsequently probed with selected IgG antibody conjugated to horseradish peroxidase (Transduction Laboratories, Lexington, Ky.) and visualized using enhanced chemiluminescence (ECL, Amersham). The densities of the bands were quantitated using a densitometer (AlphaImager 2200 System). All the membranes were stripped and reprobed for β-actin (Sigma Chemical Co., St. Louis, Mo.) as loading control. […] The inhibition of iNOS induction by compounds of the disclosure may be due to down regulation of iNOS gene expression. […] (7b) Inhibition Against LPS-Induced NO Production in RAW 264.7 Macrophage The LPS-induced NO production by the macrophages was determined as nitrite concentration in the culture medium according to the Griess reaction. […] The absorbance of the mixture at 550 nm was measured with an ELISA plate reader (Dynatech MR-7000; Dynatech Laboratories, Chantilly, Va., USA). […]

[2] = system: iNOS; assay: iNOS protein expression in LPS-stimulated RAW 264.7 macrophages (western blot); assay type: cell-based, murine; conditions: LPS 100 ng/ml, RAW 264.7, western blot; 20 and 40 μM for 1a-1c
Method: RAW 264.7 cells were cultured in Rosewell Park Memorial Institute (RPMI) 1640 media (without phenol red) supplemented with 10% endotoxin-free, heat-inactivated fetal calf serum, 100 units/ml penicillin, and 100 μg/ml streptomycin. When the cells reached a density of 2-3×10^6 cells/ml, they were activated by incubation in a medium containing E. coli lipopolysaccharide (LPS) (100 ng/ml). Various concentrations of compounds of the disclosure in dimethyl sulphoxide (DMSO) were added together with LPS. Cells were treated with 0.05% DMSO as the vehicle control. The stimulated murine macrophage cell line RAW 264.7 cells were washed with PBS and lysed in an ice-cold RIPA buffer (Tris-HCl, pH 7.2, 25 mM; 0.1% SDS; 1% Triton X-100; 1% sodium deoxycholate; 0.15 M NaCl; 1 mM EDTA) containing 1 mM phenylmethyl sulphonyl fluoride (PMSF), 10 μg/mL aprotinin, 1 mM sodium ortho-vanadate, and 5 μg/mL leupeptin. Protein concentrations were determined using the BCA method (Pierce, Rockford, Ill.). The samples (50 μg of protein) were mixed with 5-fold of sample buffer containing 0.3 M Tris-HCl (pH 6.8), 25% 2-mercaptoethanol, 12% sodium dodecyl sulphate (SDS), 25 mM EDTA, 20% glycerol, and 0.1% bromophenol blue. The mixtures were boiled at 100° C. for 5 min, prerun on a stacking gel, and then resolved by 12% SDS-polyacrylamide minigels at a constant current of 20 mA. For western blot, proteins on the gel were electro-transferred onto a […] immobile polyvinylidene fluoride (PVDF) membrane with a transfer buffer composed of 25 mM Tris-HCl (pH 8.9), 192 mM glycine, and 20% methanol, as described by Pan et al. (2000). […] The densities of the bands were quantitated using a densitometer (AlphaImager 2200 System). […] (7b) Inhibition Against LPS-Induced NO Production in RAW 264.7 Macrophage The LPS-induced NO production by the macrophages was determined as nitrite concentration in the culture medium according to the Griess reaction. […] The absorbance of the mixture at 550 nm was measured with an ELISA plate reader (Dynatech MR-7000; Dynatech Laboratories, Chantilly, Va., USA). […]

Compound	IC50 ([1]; Mus musculus, RAW264.7) [µM]	Inhibition of iNOS protein expression [2]	IC50 [1] [µM]
CCCCCCCCCCCCCCCCCC(=O)Oc1cc(C(=O)OC2Cc3c(O)cc(O)cc3OC2c2cc(OC(=O)CCCCCCCCCCCCCCCCC)c(O)c(OC(=O)CCCCCCCCCCCCCCCCC)c2)cc(OC(=O)CCCCCCCCCCCCCCCCC)c1O (centres unmarked) [Compound 1a, EGCG stearate]	40.7		
CCC=CCC=CCC=CCC=CCC=CCCCC(=O)Oc1cc(C(=O)OC2Cc3c(O)cc(O)cc3OC2c2cc(OC(=O)CCCC=CCC=CCC=CCC=CCC=CCC)c(O)c(OC(=O)CCCC=CCC=CCC=CCC=CCC=CCC)c2)cc(OC(=O)CCCC=CCC=CCC=CCC=CCC=CCC)c1O (centres unmarked) [Compound 1b]		strong dose-dependent relationship in suppressing the cytokine production	
CCC=CCC=CCC=CCC=CCC=CCC=CCCC(=O)Oc1cc(C(=O)OC2Cc3c(O)cc(O)cc3OC2c2cc(OC(=O)CCC=CCC=CCC=CCC=CCC=CCC=CCC)c(O)c(OC(=O)CCC=CCC=CCC=CCC=CCC=CCC=CCC)c2)cc(OC(=O)CCC=CCC=CCC=CCC=CCC=CCC=CCC)c1O (centres unmarked) [Compound 1c]		the most potent in inhibiting the induction of iNOS expression	
O=C(O[C@@H]1Cc2c(O)cc(O)cc2O[C@@H]1c1cc(O)c(O)c(O)c1)c1cc(O)c(O)c(O)c1 [EGCG, Epigallocatechin gallate, reference compound]	103		103

Source: patent US9018248B2, “Fatty acid derivatives of catechins and methods of their use” (Genesis Group Inc., priority 2010, dated 2015)
